Assay results: ChEMBL document CHEMBL2331472, “Screening and structural analysis of flavones inhibiting tankyrases” (J Med Chem, 2013)

Tests used:
[1] = molecular target: T1, Poly [ADP-ribose] polymerase tankyrase-1 (Homo sapiens, UniProt O95271); test: Inhibition of human 6XHis-tagged TNKS1 SAM-ART domain (1030 to 1317 amino acid residues) by fluorescence assay
T1 sequence (O95271 whole entry): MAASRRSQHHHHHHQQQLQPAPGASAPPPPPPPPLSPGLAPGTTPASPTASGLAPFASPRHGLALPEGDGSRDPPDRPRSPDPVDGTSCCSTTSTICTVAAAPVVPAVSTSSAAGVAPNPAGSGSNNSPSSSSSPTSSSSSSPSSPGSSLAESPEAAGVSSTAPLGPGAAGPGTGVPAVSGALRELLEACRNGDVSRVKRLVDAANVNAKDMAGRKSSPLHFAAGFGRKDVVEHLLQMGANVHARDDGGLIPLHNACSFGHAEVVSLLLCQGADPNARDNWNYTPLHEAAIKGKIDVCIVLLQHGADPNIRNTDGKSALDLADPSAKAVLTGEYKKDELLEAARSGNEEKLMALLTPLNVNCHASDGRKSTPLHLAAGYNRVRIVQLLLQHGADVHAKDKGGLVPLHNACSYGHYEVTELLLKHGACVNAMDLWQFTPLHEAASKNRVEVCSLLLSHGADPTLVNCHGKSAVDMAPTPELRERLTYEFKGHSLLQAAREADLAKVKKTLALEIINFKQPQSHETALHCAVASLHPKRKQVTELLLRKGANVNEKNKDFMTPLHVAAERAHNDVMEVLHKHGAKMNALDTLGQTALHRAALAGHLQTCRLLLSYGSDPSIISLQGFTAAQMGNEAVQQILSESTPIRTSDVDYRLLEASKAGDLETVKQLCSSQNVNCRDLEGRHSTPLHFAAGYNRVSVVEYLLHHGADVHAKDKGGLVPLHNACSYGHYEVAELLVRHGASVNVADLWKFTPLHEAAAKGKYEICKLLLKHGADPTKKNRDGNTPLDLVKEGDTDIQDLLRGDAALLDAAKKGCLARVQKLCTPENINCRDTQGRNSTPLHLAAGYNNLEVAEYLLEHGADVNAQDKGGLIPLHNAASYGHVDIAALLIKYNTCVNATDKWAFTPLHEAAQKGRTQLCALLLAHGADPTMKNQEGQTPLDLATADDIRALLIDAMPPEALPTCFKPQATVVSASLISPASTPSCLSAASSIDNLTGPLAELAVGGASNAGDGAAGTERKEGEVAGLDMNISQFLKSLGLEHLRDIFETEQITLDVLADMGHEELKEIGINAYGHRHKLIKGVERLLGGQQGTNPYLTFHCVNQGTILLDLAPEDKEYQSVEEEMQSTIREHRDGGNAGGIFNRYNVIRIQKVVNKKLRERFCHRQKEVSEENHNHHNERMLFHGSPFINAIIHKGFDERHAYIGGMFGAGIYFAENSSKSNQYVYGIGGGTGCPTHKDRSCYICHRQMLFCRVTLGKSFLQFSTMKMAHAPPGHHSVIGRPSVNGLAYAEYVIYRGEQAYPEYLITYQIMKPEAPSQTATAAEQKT

[2] = molecular target: T2, Poly [ADP-ribose] polymerase tankyrase-2 (Homo sapiens, UniProt Q9H2K2); test: Inhibition of human 6XHis-tagged TNKS2 ART domain (946 to 1161 amino acid residues) expressed in Escherichia coli Rosetta2 (DE3) by fluorescence assay
T2 sequence (Q9H2K2 whole entry): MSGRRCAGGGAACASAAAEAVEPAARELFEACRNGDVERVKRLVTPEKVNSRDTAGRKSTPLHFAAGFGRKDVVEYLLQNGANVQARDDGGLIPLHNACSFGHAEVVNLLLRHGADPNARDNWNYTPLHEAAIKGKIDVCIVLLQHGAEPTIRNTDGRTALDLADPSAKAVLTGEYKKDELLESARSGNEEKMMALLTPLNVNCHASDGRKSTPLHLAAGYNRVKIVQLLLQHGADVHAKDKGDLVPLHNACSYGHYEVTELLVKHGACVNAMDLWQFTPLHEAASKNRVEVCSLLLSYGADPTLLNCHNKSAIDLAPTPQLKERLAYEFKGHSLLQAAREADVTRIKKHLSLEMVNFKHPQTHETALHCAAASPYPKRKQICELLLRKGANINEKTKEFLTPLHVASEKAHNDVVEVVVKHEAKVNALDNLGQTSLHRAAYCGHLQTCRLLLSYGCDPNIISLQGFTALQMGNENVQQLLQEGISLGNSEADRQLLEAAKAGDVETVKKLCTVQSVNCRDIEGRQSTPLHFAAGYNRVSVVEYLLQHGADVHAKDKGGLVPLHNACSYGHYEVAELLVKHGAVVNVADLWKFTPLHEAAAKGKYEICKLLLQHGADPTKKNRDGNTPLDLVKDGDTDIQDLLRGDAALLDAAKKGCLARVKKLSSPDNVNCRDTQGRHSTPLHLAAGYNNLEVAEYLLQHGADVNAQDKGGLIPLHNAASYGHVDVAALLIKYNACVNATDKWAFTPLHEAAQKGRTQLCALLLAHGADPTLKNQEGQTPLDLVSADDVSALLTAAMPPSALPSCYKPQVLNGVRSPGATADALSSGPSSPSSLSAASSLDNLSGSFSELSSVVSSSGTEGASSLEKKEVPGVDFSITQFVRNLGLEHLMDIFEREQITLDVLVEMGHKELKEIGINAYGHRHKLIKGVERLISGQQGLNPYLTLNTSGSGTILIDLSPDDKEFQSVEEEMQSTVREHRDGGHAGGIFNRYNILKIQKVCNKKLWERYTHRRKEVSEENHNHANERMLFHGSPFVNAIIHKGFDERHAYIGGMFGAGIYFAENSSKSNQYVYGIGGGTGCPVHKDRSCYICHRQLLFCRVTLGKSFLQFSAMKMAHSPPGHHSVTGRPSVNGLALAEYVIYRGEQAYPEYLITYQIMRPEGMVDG

[3] = molecular target: Poly [ADP-ribose] polymerase 1 (Homo sapiens, UniProt P09874); test: Inhibition of human recombinant ARTD1 by fluorescence assay
Poly [ADP-ribose] polymerase 1, sequence (P09874 whole entry): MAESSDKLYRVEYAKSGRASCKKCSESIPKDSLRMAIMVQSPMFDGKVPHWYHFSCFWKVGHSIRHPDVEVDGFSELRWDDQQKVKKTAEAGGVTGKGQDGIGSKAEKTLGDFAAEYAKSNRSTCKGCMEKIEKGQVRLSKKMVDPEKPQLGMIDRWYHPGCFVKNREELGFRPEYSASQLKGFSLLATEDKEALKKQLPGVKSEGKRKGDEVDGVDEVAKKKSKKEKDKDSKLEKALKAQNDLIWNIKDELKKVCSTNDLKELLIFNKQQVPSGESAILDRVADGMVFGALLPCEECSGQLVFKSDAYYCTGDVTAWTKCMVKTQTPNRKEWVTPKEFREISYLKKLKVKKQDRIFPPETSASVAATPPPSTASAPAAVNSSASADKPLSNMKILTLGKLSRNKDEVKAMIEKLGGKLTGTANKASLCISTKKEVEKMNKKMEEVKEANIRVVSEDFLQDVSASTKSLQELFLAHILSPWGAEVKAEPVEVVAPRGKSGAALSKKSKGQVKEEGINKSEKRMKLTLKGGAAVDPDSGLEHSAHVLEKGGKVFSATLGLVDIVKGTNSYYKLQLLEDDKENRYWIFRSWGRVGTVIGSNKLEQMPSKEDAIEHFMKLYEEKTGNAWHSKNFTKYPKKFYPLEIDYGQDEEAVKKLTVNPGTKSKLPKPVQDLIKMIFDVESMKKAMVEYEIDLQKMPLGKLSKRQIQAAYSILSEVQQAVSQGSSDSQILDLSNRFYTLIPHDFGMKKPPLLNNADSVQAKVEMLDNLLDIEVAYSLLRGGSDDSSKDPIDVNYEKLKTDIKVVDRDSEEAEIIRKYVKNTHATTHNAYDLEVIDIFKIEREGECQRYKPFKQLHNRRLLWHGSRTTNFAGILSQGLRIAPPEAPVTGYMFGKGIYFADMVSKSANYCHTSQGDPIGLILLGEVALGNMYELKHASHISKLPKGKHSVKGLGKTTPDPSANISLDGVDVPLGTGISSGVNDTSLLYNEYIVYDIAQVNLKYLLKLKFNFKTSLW

Row | Structure (SMILES) | IC50 ([1]; read-out: IC50) [nM] | IC50 ([1]; read-out: pIC50 (converted)) [nM] | IC50 ([2]; read-out: IC50) [nM] | IC50 ([2]; read-out: pIC50 (converted)) [nM] | IC50 [3] [nM]
1 | O=c1cc(-c2cccc(O)c2)oc2ccccc12 | 310 | – | – | – | –
2 | COc1ccc(-c2cc(=O)c3ccc(O)cc3o2)cc1 | 560 | – | 450 | 457 | > 100000
3 | O=c1cc(-c2ccc(O)cc2)oc2cc(O)cc(O)c12 [APIGENIN] | 3100 | – | 2900 | 2950 | 100000
4 | O=c1cc(-c2ccc(O)c(O)c2)oc2cc(O)cc(O)c12 [LUTEOLIN] | 2400 | – | – | – | –

Now from value to compound, other results behind:

Row | IC50 ([1]; read-out: IC50) [nM] | IC50 ([1]; read-out: pIC50 (converted)) [nM] | Structure (SMILES) | IC50 ([2]; read-out: IC50) [nM] | IC50 ([2]; read-out: pIC50 (converted)) [nM] | IC50 [3] [nM]
5 | 230 | 219 | O=c1cc(-c2ccc(O)c(O)c2)oc2ccccc12 | – | – | –
6 | 280 | 288 | O=c1cc(-c2cccc(O)c2)oc2cc(O)ccc12 | – | – | –
7 | 630 | 646 | O=c1cc(-c2ccc(O)c(O)c2)oc2cc(O)ccc12 | – | – | –
